Data reported in patent US20050255537A1, “Method for monitoring treatment with a parathyroid hormone” (priority 1999, published 2005).

Key:
human subjects = test: Applicant's studies of daily dose of hPTH(1-34) in human subjects (bone markers, side effects); format: in vivo
Experimental: Therefore, treatment of osteoporosis in men or women with hPTH(1-34) preferably should use a daily dose greater than about 6 μg, more preferably at least about 15 μg. […] Therefore, any daily dose of hPTH(1-34) in the range of greater than about 6 μg to at least about 40 μg would be effective for reduction of the risk of both vertebral and nonvertebral fractures, according to the present method of using this form of parathyroid hormone.

[1] = tested on: postmenopausal women and osteoporotic men; test: Example 6 spine BMD treatment-response model and BCM response-indicator neural network (women and men); format: in vivo, human
Excerpt: Data from studies in Examples 1 and 5 above were further analyzed to develop more detailed models for the use of bone markers in monitoring and predicting effects of PTH on clinically significant correlates of efficacy in the treatment of osteoporosis, such as bone mineral density (BMD). Population pharmacodynamic (PD) models were developed for total lumbar spine BMD, and the following biochemical markers of bone formation and resportion: PICP, BSAP, NTX, and DPD. The final treatment-response model for total lumbar spine was used to calculate BMD values at 12 months of treatment for each patient, based on the individual's parameter estimates (empirical Bayesian estimate). These predicted BMD measurements were merged with the observed BCM values, at baseline, 1 month, and 3 months of treatment, for patients who completed at least 12 months of LY333334 treatment. A neural network was developed to characterize the relationship between BCM values at 1 and 3 months and response to treatment, as measured by change in total lumbar spine BMD.
The spine BMD placebo-response model characterized change in total lumbar spine BMD over time in osteoporotic patients taking calcium and vitamin D supplements. The BMD treatment-response model was used to characterize change in total lumbar spine BMD during the course of treatment and to identify patient factors influencing response to therapy. This model was also used to provide individual estimates of change in BMD at 12 months. The BCM treatment-response models characterized changes in PICP, BSAP, NTX, and DPD, during the course of treatment.
The individual estimates of change in spine BMD from the final treatment-response model were combined with observed BCM values to develop the response-indicator neural network. The neural network was used to evaluate change in the biochemical markers as early indicators of change in total lumbar spine BMD.
Change in total lumbar spine BMD at 12 months of treatment was calculated from the post-hoc BMD estimates for each patient from the final spine BMD treatment-response model. These BMD estimates were combined with observed BCM values at baseline, 1, and 3 months for all patients completing at least 12 months of LY333334 therapy.
Neural networks were used to evaluate the biochemical markers as potential indicators of bone mineral density response to LY333334 treatment. The relationship between change in biochemical marker values and change in spine BMD is complex and the appropriate model structure is unknown. The neural network approach was chosen to avoid the a priori assumption of a model form. A proprietary artificial neural network program developed at Eli Lilly and Company (described in Wikel J, Dow E, Heathman M. 1996. Interpretive Neural Networks for QSAR. Network Science [available on-line]) was used to evaluate the BCM values as predictors of change in spine BMD. Other back-propagation networks which are known in the art and commercially available also would provide similar results. The BCM values, as well as significant patient factors from the final spine BMD treatment-response model, were used as inputs to the neural network. The network was trained to predict change in total lumbar spine BMD.

[2] = Female Patients, BSAP at 3 Months 10-14.99 pM
[3] = Female Patients, BSAP at 3 Months 15-19.99 pM
[4] = Female Patients, BSAP at 3 Months <10 pM
[5] = Female Patients, BSAP at 3 Months ≧20 pM
[6] = Females, change in PICP at 1 month 50-99 pM, baseline PICP <100 pM
[7] = Females, change in PICP at 1 month 50-99 pM, baseline PICP ≧100 pM
[8] = Females, change in PICP at 1 month 100-149 pM, baseline PICP <100 pM
[9] = Females, change in PICP at 1 month 100-149 pM, baseline PICP ≧100 pM
[10] = Females, change in PICP at 1 month <50 pM, baseline PICP <100 pM
[11] = Females, change in PICP at 1 month <50 pM, baseline PICP ≧100 pM
[12] = Females, change in PICP at 1 month ≧150 pM, baseline PICP ≧100 pM
[13] = Male Patients, BSAP at 3 Months 10-14.99 pM
[14] = Male Patients, BSAP at 3 Months 15-19.99 pM
[15] = Male Patients, BSAP at 3 Months <10 pM
[16] = Male Patients, BSAP at 3 Months ≧20 pM
[17] = Males, change in PICP at 1 month 50-99 pM, baseline PICP <100 pM
[18] = Males, change in PICP at 1 month 50-99 pM, baseline PICP ≧100 pM
[19] = Males, change in PICP at 1 month 100-149 pM, baseline PICP <100 pM
[20] = Males, change in PICP at 1 month 100-149 pM, baseline PICP ≧100 pM
[21] = Males, change in PICP at 1 month <50 pM, baseline PICP <100 pM
[22] = Males, change in PICP at 1 month <50 pM, baseline PICP ≧100 pM
[23] = Males, change in PICP at 1 month ≧150 pM, baseline PICP <100 pM
[24] = Males, change in PICP at 1 month ≧150 pM, baseline PICP ≧100 pM
[25] = all patients with baseline PICP >100 pM and increase in PICP >100 pM, 12 months
[26] = male patients with baseline PICP >100 pM and increase in PICP >100 pM
[27] = postmenopausal women with baseline PICP >100 pM and increase in PICP >100 pM

SMILES: CC[C@H](C)[C@H](NC(=O)[C@H](CCC(=O)O)NC(=O)[C@H](CO)NC(=O)[C@@H](NC(=O)[C@@H](N)CO)C(C)C)C(=O)N[C@@H](CCC(N)=O)C(=O)N[C@@H](CC(C)C)C(=O)N[C@@H](CCSC)C(=O)N[C@@H](Cc1cnc[nH]1)C(=O)N[C@@H](CC(N)=O)C(=O)N[C@@H](CC(C)C)C(=O)NCC(=O)N[C@@H](CCCCN)C(=O)N[C@@H](Cc1cnc[nH]1)C(=O)N[C@@H](CC(C)C)C(=O)N[C@@H](CC(N)=O)C(=O)N[C@@H](CO)C(=O)N[C@@H](CCSC)C(=O)N[C@@H](CCC(=O)O)C(=O)N[C@@H](CCCN=C(N)N)C(=O)N[C@H](C(=O)N[C@@H](CCC(=O)O)C(=O)N[C@@H](Cc1c[nH]c2ccccc12)C(=O)N[C@@H](CC(C)C)C(=O)N[C@@H](CCCN=C(N)N)C(=O)N[C@@H](CCCCN)C(=O)N[C@@H](CCCCN)C(=O)N[C@@H](CC(C)C)C(=O)N[C@@H](CCC(N)=O)C(=O)N[C@@H](CC(=O)O)C(=O)N[C@H](C(=O)N[C@@H](Cc1cnc[nH]1)C(=O)N[C@@H](CC(N)=O)C(=O)N[C@@H](Cc1ccccc1)C(=O)O)C(C)C)C(C)C [LY333334]
- effect on bone formation as indicated by bone markers (human subjects; 6 μg): no significant effects
- undesirable side effects (human subjects; daily dose of about 20 μg vs about 40 μg): fewer undesirable side effects
- lowest tested dose effective for stimulation of bone formation, as indicated by bone markers (human subjects; human subjects, daily dose): about 15 μg
- % Change in Spine BMD at 12 Months, 5th-95th Percentiles [1, 2]: 1.5-18.9%
- % Change in Spine BMD at 12 Months, Mean [1, 2]: 9.4%
- % Change in Spine BMD at 12 Months, 5th-95th Percentiles [1, 3]: 3.4-24.7%
- % Change in Spine BMD at 12 Months, Mean [1, 3]: 12.2%
- % Change in Spine BMD at 12 Months, 5th-95th Percentiles [1, 4]: 0.5-15.3%
- % Change in Spine BMD at 12 Months, Mean [1, 4]: 7.2%
- % Change in Spine BMD at 12 Months, 5th-95th Percentiles [1, 5]: 4.6-20.9%
- % Change in Spine BMD at 12 Months, Mean [1, 5]: 12.9%
- % Change in Spine BMD at 12 Months, 5th-95th Percentiles [1, 6]: 2.2-19.0%
- % Change in Spine BMD at 12 Months, Mean [1, 6]: 9.5%
- % Change in Spine BMD at 12 Months, 5th-95th Percentiles [1, 7]: 3.6-18.8%
- % Change in Spine BMD at 12 Months, Mean [1, 7]: 10.4%
- % Change in Spine BMD at 12 Months, 5th-95th Percentiles [1, 8]: 2.9-16.1%
- % Change in Spine BMD at 12 Months, Mean [1, 8]: 10.4%
- % Change in Spine BMD at 12 Months, 5th-95th Percentiles [1, 9]: 6.9-19.7%
- % Change in Spine BMD at 12 Months, Mean [1, 9]: 12.6%
- % Change in Spine BMD at 12 Months, 5th-95th Percentiles [1, 10]: −0.7-12.4%
- % Change in Spine BMD at 12 Months, Mean [1, 10]: 5.7%
- % Change in Spine BMD at 12 Months, 5th-95th Percentiles [1, 11]: 2.9-17.3%
- % Change in Spine BMD at 12 Months, Mean [1, 11]: 9.0%
- % Change in Spine BMD at 12 Months, Mean ([1]; Females, change in PICP at 1 month ≧150 pM, baseline PICP <100 pM): 13.7%
- % Change in Spine BMD at 12 Months, 5th-95th Percentiles [1, 12]: 11.9-31.1%
- % Change in Spine BMD at 12 Months, Mean [1, 12]: 18.5%
- % Change in Spine BMD at 12 Months, 5th-95th Percentiles [1, 13]: 1.9-14.9%
- % Change in Spine BMD at 12 Months, Mean [1, 13]: 7.9%
- % Change in Spine BMD at 12 Months, 5th-95th Percentiles [1, 14]: 3.0-15.0%
- % Change in Spine BMD at 12 Months, Mean [1, 14]: 8.3%
- % Change in Spine BMD at 12 Months, 5th-95th Percentiles [1, 15]: 1.6-13.0%
- % Change in Spine BMD at 12 Months, Mean [1, 15]: 7.1%
- % Change in Spine BMD at 12 Months, 5th-95th Percentiles [1, 16]: 1.6-19.6%
- % Change in Spine BMD at 12 Months, Mean [1, 16]: 10.0%
- % Change in Spine BMD at 12 Months, 5th-95th Percentiles [1, 17]: 4.6-18.1%
- % Change in Spine BMD at 12 Months, Mean [1, 17]: 9.4%
- % Change in Spine BMD at 12 Months, 5th-95th Percentiles [1, 18]: 3.6-15.8%
- % Change in Spine BMD at 12 Months, Mean [1, 18]: 8.7%
- % Change in Spine BMD at 12 Months, 5th-95th Percentiles [1, 19]: 7.2-14.0%
- % Change in Spine BMD at 12 Months, Mean [1, 19]: 11.1%
- % Change in Spine BMD at 12 Months, 5th-95th Percentiles [1, 20]: 4.6-18.6%
- % Change in Spine BMD at 12 Months, Mean [1, 20]: 11.3%
- % Change in Spine BMD at 12 Months, 5th-95th Percentiles [1, 21]: 1.2-11.7%
- % Change in Spine BMD at 12 Months, Mean [1, 21]: 4.8%
- % Change in Spine BMD at 12 Months, 5th-95th Percentiles [1, 22]: 1.5-11.7%
- % Change in Spine BMD at 12 Months, Mean [1, 22]: 6.9%
- % Change in Spine BMD at 12 Months, 5th-95th Percentiles [1, 23]: 2.7-20.8%
- % Change in Spine BMD at 12 Months, Mean [1, 23]: 10.7%
- % Change in Spine BMD at 12 Months, 5th-95th Percentiles [1, 24]: 6.0-18.0%
- % Change in Spine BMD at 12 Months, Mean [1, 24]: 10.2%
- mean increase in total lumbar spine BMD [1, 25]: 13.6%
- minimum increase in total lumbar spine BMD [1, 25]: ≥ 4.3%
- mean increase in total lumbar spine BMD [1, 26]: 10.8%
- minimum increase in total lumbar spine BMD [1, 26]: ≥ 4.3%
- mean increase in total lumbar spine BMD ([1]; men who did not meet the PICP criteria): 7.4%
- mean increase in total lumbar spine BMD ([1]; patients who did not meet the PICP criteria, 12 months): 8.2%
- mean increase in total lumbar spine BMD [1, 27]: 16.0%
- minimum increase in total lumbar spine BMD [1, 27]: ≥ 5.9%
- mean increase in total lumbar spine BMD ([1]; women who did not meet the PICP criteria): 8.8%
